From patent publication US20170306042A1, “IMMUNOGENIC MODULATION BY ENDOCRINE DEPRIVATION THERAPY IMPROVES SENSITIVITY OF TUMOR CELLS TO IMMUNE MEDIATED LYSIS” (The United States of America, as represented by the …, priority 2014, published 2017)
“Also recorded” adds a separate entry of the source.

Experiments:
ZR75-1 (ER+AR+) cells [1] = experiment: Tumor cell proliferation, ZR75-1; assay type: cell-based, human; details: 10 μM; 48 or 72 hours; P<0.05 vs vehicle
Description: At the indicated time points, cells were harvested and the number of viable cells was determined by trypan blue exclusion.

[2] = test system: LNCaP AR-shRNA (AR−, HLA-A2) cells; details: 10 μM
PC-3 cells = experiment: MUC1-specific CTL lysis assay, PC-3 targets; assay type: cell-based, human; details: 10 μM, 48 hours, E:T 30:1, vs vehicle
Description: (§4) At specific time points, cells were harvested and counted. Equal numbers of effector target cells from all treatment were plated with respective cytotoxic T-cells.

[3] = test system: LNCaP (AR+, HLA-A2) cells; experiment: Cell proliferation and viability by trypan blue exclusion, LNCaP; assay type: cell-based, human; details: 10 μM
Description: Cells were harvested 24, 48, or 72 h after exposure, and the total number of adherent viable cells was determined by trypan blue exclusion. Viability was confirmed by 7AAD staining.

prostate cancer = details: reported clinical trials; cited from earlier work
LNCaP cells [4] = experiment: Apoptosis PCR array (96 genes) in LNCaP cells; assay type: cell-based, human
Description: The properties of ADT that induce immunogenic modulation and sensitize prostate tumor cells to immune-mediated attack are novel and have not been previously described. It was hypothesized that modulation of apoptotic genes might be part of the mechanism of action of ADT-induced CTL sensitization. […] In particular, gene expression was assessed using an apoptosis PCR array (SA Biosciences, Valencia, Calif.) as per the manufacturer's instructions. RT-PCR was performed on the 7300 Real-Time PCR System (Applied Biosystems, Carlsbad, Calif.). Where indicated, values were calculated as expression relative to GAPDH, as previously described (Ardiani et al., Cancer Res., 74(7): 1945-1957 (2014))

[5] = test system: castration resistant prostate cancer; details: AFFIRM trial (Scher et al. 2012); cited from earlier work
[6] = test system: MDA MB 231 (ER−AR−) cells; experiment: CEA-specific CTL lysis assay, MDA MB 231 targets; assay type: cell-based, human; details: 10 μM, E:T 30:1, vs vehicle
Description: (§1) The HLA-A2-restricted CEA-specific CTL recognizes the CEA peptide epitope […] (SEQ ID NO: 1) (CAP-1). […] The percentage of tumor lysis was calculated as follows: % tumor lysis=[(experimental cpm−spontaneous cpm)/(maximum cpm−spontaneous cpm)]×100.
(§2) OPG expression was inhibited in MDA MB 231 cells using siRNA duplexes targeting OPG sequences and control siRNA duplexes (Origene, Rockville, Md.). MDA-MB-231 cells were transfected with OPG or control siRNA according to the manufacturer's instructions. […] Forty-eight hours post siRNA transfection, the MDA MB 231 cells were also used as target cells in CEA-specific CTL and TRAIL-mediated lysis assays as described.
(§3) These cells were then used as target cells for CTL-mediated killing assays utilizing CEA-specific CTLs.

NAIP = NAIP immunohistochemistry in PC-3 xenografts in nude mice; assay type: in vivo; details: 10 mg/day, 7 days
Description: To examine the reduced expression of NAIP in vivo, either LNCaP or PC-3 cells were transplanted into […] nude mice (Charles River, Wilmington, Mass.) (s.c. in the right flank with 5×10^6 LNCaP or PC-3 prostate tumor cells). […] After 7 days of treatment, tumors were subjected to immunohistochemistry staining to detect the presence and intensity of NAIP expression. Specifically, NAIP expression was detected via immunohistochemistry using a rabbit polyclonal antibody to NAIP (Novus Bio, Littleton, Colo.) according to the manufacturer's instructions. Entire slides were digitally scanned by an Aperio ScanScope CS system and analyzed by Aperio ImageScope Viewer software (Aperio Technologies Inc., Vista, Calif.). Statistical analysis was performed using 3-7 murine tumors, each prepared as a complete stained tumor section. Positive tumor regions were determined using the Positive Pixel Count v9 algorithm. Negative controls included omission of primary antibody with PBS and matched rabbit isotype antibody. In all cases, necrotic areas of tumor were excluded from analysis.

[7] = test system: murine prostate carcinomas; details: cited from earlier work
LNCaP cells [8] = experiment: MUC1-specific CTL lysis assay, LNCaP targets; assay type: cell-based, human; details: 10 μM, 48 hours, E:T 30:1, vs vehicle
Description: as §4

PSA = experiment: RT-PCR of PSA mRNA in LNCaP cells; assay type: cell-based, human; details: 10 μM, 48 hours, P<0.0001
ZR75-1 (ER+AR+) cells [9] = experiment: CEA-specific CTL lysis assay, ZR75-1 targets; assay type: cell-based, human; details: 10 μM, E:T 30:1, vs vehicle
Description: as §1, §3

OPG = experiment: ELISA of secreted OPG, MDA MB 231 cells; assay type: cell-based, human; details: 10 μM, 48 hours, P<0.05
Description: ELISA was performed on combined supernatant samples taken following 24 and 48 hours of treatment.
as §2

MDA MB 231 cells = details: 10 μM, 48 hours
Description: (§5) After 48 hours, cells were harvested and stained with the following antibodies: HLA A2-PE-Cy7, MUC-1-FITC, CD54-BV421, CD95-FITC (BD Biosciences, San Jose, Calif.), CEA-APC (Miltenyi Biotec, Auburn, Calif.), TRAIL receptor 1 and TRAIL receptor 2 (R & D Systems, Minneapolis, Minn.). LIVE/DEAD Fixable Violet Dead Cell Stain (Life Technologies, Grand Island, N.Y.) was used to determine cell viability. Cells were incubated with the antibodies for 30 min at 4° C., acquired on a FACS Verse flow cytometer (Becton Dickinson, Franklin Lakes, N.J.), and analyzed using FlowJo software (TreeStar, Inc., Ashland, Oreg.).

BT549 (ER−AR+) cells = experiment: CEA-specific CTL lysis assay, BT549 targets; assay type: cell-based, human; details: 10 μM, E:T 30:1, vs vehicle, P<0.01
Description: as §1

ZR75-1 cells = details: 10 μM, 48 hours
Description: as §5

[10] = apoptosis PCR array, negative = down-regulated

enzalutamide
proliferation of ZR75-1 cells (ZR75-1 (ER+AR+) cells [1]): significantly inhibited the proliferation | growth of LNCaP AR-shRNA [2]: did not affect the growth | sensitivity to MUC1-specific CTL-mediated lysis (PC-3 cells): neither enzalutamide nor abiraterone improved PC-3 cells' sensitivity; also recorded: did not improve the sensitivity | viability of LNCaP cells ([3]; trypan blue exclusion after 3 days of drug exposure): Neither enzalutamide nor abiraterone affected the viability | growth / proliferation of LNCaP cells ([3]; vs vehicle (DMSO), P<0.01): significantly inhibited the growth | prostate cancer patients who did not respond and continued to have rising PSA levels (prostate cancer): more than 30% | CASP1 (Caspase 1) gene expression change (LNCaP cells [4]; [10]): −2.17 fold | CASP5 gene expression change (LNCaP cells [4]; [10]): −3.50 fold | CASP8 gene expression change (LNCaP cells [4]; [10]): −2.96 fold | CD27 gene expression change (LNCaP cells [4]; [10]): −2.26 fold | DAPK1 gene expression change (LNCaP cells [4]; [10]): −6.53 fold | HRK gene expression change (LNCaP cells [4]; [10]): −2.86 fold | NAIP gene expression change (LNCaP cells [4]; [10]): −13.90 fold | TNFRSF25 (DR3) gene expression change (LNCaP cells [4]; [10]): −3.70 fold | TNFSF8 gene expression change (LNCaP cells [4]; [10]): −3.50 fold | DAPK1 down-regulated (LNCaP cells [4]; rounded from Table 1): 6.5 fold | NAIP down-regulated (LNCaP cells [4]; rounded from Table 1): 14 fold | advantage in overall survival compared to placebo [5]: 4.8 month | sensitivity to CEA-specific CTL-mediated lysis [6]: capable of increasing the sensitivity | NAIP expression in PC-3 tumors vs untreated (NAIP): did not mediate significant changes in NAIP expression | number or function of T-cells ([7]; Ardiani et al. 2013): did not alter the number or function of T-cells | MHC-I and Fas on the surface of tumor cells ([7]; murine prostate carcinomas (Ardiani et al. 2013)): up-regulated MHC-I and Fas | sensitivity to MUC1-specific CTL-mediated lysis (LNCaP cells [8]): significantly enhanced their sensitivity | reduction in levels of PSA mRNA (PSA): 5.5 fold | sensitivity to CEA-specific CTL-mediated lysis (ZR75-1 (ER+AR+) cells [9]): significantly enhanced their sensitivity | amount of secreted OPG (OPG): reduced the amount of OPG | cell-surface markers with increased expression (MDA MB 231 cells; MDA MB 231 (ER−AR−)): upregulated CEA, ICAM-1 and Trail receptors 1/2 | CEA mean fluorescence intensity (MDA MB 231 cells; MDA MB 231): 626 | CEA percent positivity (MDA MB 231 cells; MDA MB 231): 9.7% | Fas mean fluorescence intensity (MDA MB 231 cells; MDA MB 231): 375 | Fas percent positivity (MDA MB 231 cells; MDA MB 231): 9.0% | HLA A2 mean fluorescence intensity (MDA MB 231 cells; MDA MB 231): 21175 | HLA A2 percent positivity (MDA MB 231 cells; MDA MB 231): 96.4% | ICAM-1 mean fluorescence intensity (MDA MB 231 cells; MDA MB 231): 7254 | ICAM-1 percent positivity (MDA MB 231 cells; MDA MB 231): 95.3% | MUC-1 mean fluorescence intensity (MDA MB 231 cells; MDA MB 231): 503 | Trail R1 mean fluorescence intensity (MDA MB 231 cells; MDA MB 231): 1125 | Trail R1 percent positivity (MDA MB 231 cells; MDA MB 231): 19.2% | Trail R2 mean fluorescence intensity (MDA MB 231 cells; MDA MB 231): 1516 | sensitivity to CEA-specific CTL-mediated lysis (BT549 (ER−AR+) cells): significantly improved their sensitivity | CEA mean fluorescence intensity (ZR75-1 cells): 4690 | CEA percent positivity (ZR75-1 cells): 28.9% | Fas mean fluorescence intensity (ZR75-1 cells): 1611 | Fas percent positivity (ZR75-1 cells): 26.8% | HLA A2 mean fluorescence intensity (ZR75-1 cells): 3047 | HLA A2 percent positivity (ZR75-1 cells): 10.0% | ICAM-1 mean fluorescence intensity (ZR75-1 cells): 2473 | ICAM-1 percent positivity (ZR75-1 cells): 26.1% | MUC-1 mean fluorescence intensity (ZR75-1 cells): 2203 | MUC-1 percent positivity (ZR75-1 cells): 37.1% | Trail R1 mean fluorescence intensity (ZR75-1 cells): 4325 | Trail R1 percent positivity (ZR75-1 cells): 7.9% | Trail R2 mean fluorescence intensity (ZR75-1 cells): 4502
